Laboratory results published in ChEMBL document CHEMBL1135808, “A new type of mixed anhydride and its applications to the synthesis of 7-substituted 8-chloro-5,5-dioxoimidazo[1,2-b][1,4,2]benzodithiazines with in vitro antitumor activity” (2002).

Columns and labels:
OVCAR-3 = test: In vitro growth inhibition against ovarian cancer OVCAR-3 cell line was reported.; format: functional; settings: Homo sapiens
RPMI-8226 [1] = test: In vitro total growth inhibition against leukemia […] cell lines was reported.; format: functional; settings: Homo sapiens, read-out: Log TGI (converted)
NCI-H23 = test: In vitro total growth inhibition against non-small-cell lung cancer NCI-H23 cell lines was reported.; format: functional; settings: Homo sapiens, read-out: Log TGI (converted)
SF-268 = test: In vitro growth inhibition against CNS cancer SF-268 cell line was reported.; format: functional; settings: Homo sapiens
M14 [2] = test: Log of molar concentration leading to 50% cell death against melanoma M14 cell line was reported; format: functional; settings: Homo sapiens, read-out: Log LC50 (the source's name) (converted)
IGROV-1 [3] = test: In vitro growth inhibition against ovarian cancer IGROV1 cell line was reported.; format: functional; settings: Homo sapiens
Homo sapiens = species on record: Homo sapiens; test: In vitro total growth inhibition against non-small-cell lung cancer EKVX cell lines was reported.; format: functional; settings: read-out: Log TGI (converted)
SK-MEL-5 = test: In vitro total growth inhibition against melanoma SK-MEL-5 cell lines was reported.; format: functional; settings: Homo sapiens, read-out: Log TGI (converted)
SK-MEL-2 = test: In vitro growth inhibition against melanoma SK-MEL-2 cell line was reported.; format: functional; settings: Homo sapiens
A549 [4] = test: In vitro total growth inhibition against non-small-cell lung cancer A 549/ATCC cell lines was reported.; format: functional; settings: Homo sapiens, read-out: Log TGI (converted)
TK-10 [5] = test: In vitro growth inhibition against renal cancer TK-10 cell line was reported.; format: functional; settings: Homo sapiens
K562 [6] = test: In vitro total growth inhibition against leukemia K-562 cell lines was reported.; format: functional; settings: Homo sapiens, read-out: Log TGI (converted)
U-251 [7] = test: In vitro total growth inhibition against CNS cancer U251 cell lines was reported.; format: functional; settings: Homo sapiens, read-out: Log TGI (converted)
HT-29 = test: In vitro total growth inhibition against colon cancer HT-29 cell lines was reported.; format: functional; settings: Homo sapiens, read-out: Log TGI (converted)
HL-60 [8] = test: In vitro growth inhibition against leukemia HL-60(TB) cell line was reported.; format: functional; settings: Homo sapiens
SK-MEL-28 [9] = test: In vitro total growth inhibition against melanoma SK-MEL-28 cell lines was reported.; format: functional; settings: Homo sapiens, read-out: Log TGI (converted)
A549 [10] = test: In vitro growth inhibition against non-small-cell lung cancer A 549/ATCC cell line was reported.; format: functional; settings: Homo sapiens
OVCAR-4 = test: Log of molar concentration leading to 50% cell death against ovarian cancer OVCAR-4 cell line was reported; format: functional; settings: Homo sapiens, read-out: Log LC50 (the source's name) (converted)
LOX IMVI = test: In vitro total growth inhibition against melanoma LOX IMVI cell lines was reported.; format: functional; settings: Homo sapiens, read-out: Log TGI (converted)
Tumor Cell line = test: In vitro total growth inhibition for 50 cell lines was reported as log of molar concentration; format: functional, Homo sapiens
IGROV-1 [11] = test: Log of molar concentration leading to 50% cell death against ovarian cancer IGROV1 cell line was reported; format: functional; settings: Homo sapiens, read-out: Log LC50 (the source's name) (converted)
U-251 [12] = test: In vitro growth inhibition against CNS cancer U251 cell line was reported.; format: functional; settings: Homo sapiens
SNB-19 = test: In vitro total growth inhibition against CNS cancer SNB-19 cell lines was reported.; format: functional; settings: Homo sapiens, read-out: Log TGI (converted)
UO-31 = test: In vitro growth inhibition against renal cancer UO-31 cell line was reported.; format: functional; settings: Homo sapiens
HL-60 [13] = test: Log of molar concentration leading to 50% cell death against leukemia HL-60(TB) cell line was reported; format: functional; settings: Homo sapiens, read-out: Log LC50 (the source's name) (converted)
OVCAR-5 = test: In vitro total growth inhibition against ovarian cancer OVCAR-5 cell lines was reported.; format: functional; settings: Homo sapiens, read-out: Log TGI (converted)
HOP-92 = test: In vitro growth inhibition against non-small-cell lung cancer HOP-92 cell line was reported.; format: functional; settings: Homo sapiens
RXF 393 [14] = test: In vitro total growth inhibition against renal cancer RXF 393 cell lines was reported.; format: functional; settings: Homo sapiens, read-out: Log TGI (converted)
M14 [15] = test: In vitro growth inhibition against melanoma M14 cell line was reported.; format: functional; settings: Homo sapiens
MCF7 = test: In vitro growth inhibition against breast cancer MCF 7 cell line was reported.; format: functional; settings: Homo sapiens
OVCAR-8 = test: In vitro total growth inhibition against ovarian cancer OVCAR-8 cell lines was reported.; format: functional; settings: Homo sapiens, read-out: Log TGI (converted)
Malme-3M = test: In vitro growth inhibition against melanoma MALME 3M cell line was reported.; format: functional; settings: Homo sapiens
SK-MEL-28 [16] = test: In vitro growth inhibition against melanoma SK-MEL-28 cell line was reported.; format: functional; settings: Homo sapiens
TK-10 [17] = test: In vitro total growth inhibition against renal cancer TK-10 cell lines was reported.; format: functional; settings: Homo sapiens, read-out: Log TGI (converted)
DU-145 = test: Log of molar concentration leading to 50% cell death against prostate cancer […] cell line was reported; format: functional; settings: Homo sapiens, read-out: Log LC50 (the source's name) (converted)
NCI-H522 = test: Log of molar concentration leading to 50% cell death against non-small-cell lung cancer NCI-522 cell line was reported; format: functional; settings: Homo sapiens, read-out: Log LC50 (the source's name) (converted)
K562 [18] = test: In vitro growth inhibition against leukemia K-562 cell line was reported.; format: functional; settings: Homo sapiens
SF-539 [19] = test: Log of molar concentration leading to 50% cell death against CNS cancer SF-539 cell line was reported; format: functional; settings: Homo sapiens, read-out: Log LC50 (the source's name) (converted)
786-0 = test: In vitro total growth inhibition against renal cancer […] cell lines was reported.; format: functional; settings: Homo sapiens, read-out: Log TGI (converted)
UACC-62 = test: In vitro growth inhibition against melanoma UACC-62 cell line was reported.; format: functional; settings: Homo sapiens
HOP-62 [20] = test: In vitro total growth inhibition against non-small-cell lung cancer HOP-62 cell lines was reported.; format: functional; settings: Homo sapiens, read-out: Log TGI (converted)
T47D [21] = test: In vitro total growth inhibition against breast cancer […] cell lines was reported.; format: functional; settings: Homo sapiens, read-out: Log TGI (converted)
RPMI-8226 [22] = test: In vitro growth inhibition against leukemia […] cell line was reported.; format: functional; settings: Homo sapiens
MDA-MB-231 [23] = test: In vitro growth inhibition against breast cancer MDA-MB-231/ATCC cell line was reported.; format: functional; settings: Homo sapiens
T47D [24] = test: In vitro growth inhibition against breast cancer […] cell line was reported.; format: functional; settings: Homo sapiens
SN12C = test: In vitro growth inhibition against renal cancer SN12C cell line was reported.; format: functional; settings: Homo sapiens
EKVX = test: In vitro growth inhibition against non-small-cell lung cancer EKVX cell line was reported.; format: functional; settings: Homo sapiens
MOLT-4 = test: In vitro growth inhibition against leukemia MOLT-4 cell line was reported.; format: functional; settings: Homo sapiens
NCI-H322M = test: In vitro total growth inhibition against non-small-cell lung cancer NCI-H322M cell lines was reported.; format: functional; settings: Homo sapiens, read-out: Log TGI (converted)
PC-3 = test: Log of molar concentration leading to 50% cell death against prostate cancer PC-3 cell line was reported; format: functional; settings: Homo sapiens, read-out: Log LC50 (the source's name) (converted)
COLO 205 = test: In vitro total growth inhibition against colon cancer COLO 205 cell lines was reported.; format: functional; settings: Homo sapiens, read-out: Log TGI (converted)
HCC 2998 = test: Log of molar concentration leading to 50% cell death against colon cancer HCC2998 cell line was reported; format: functional; settings: Homo sapiens, read-out: Log LC50 (the source's name) (converted)
MDA-MB-231 [25] = test: In vitro total growth inhibition against breast cancer MDA-MB-231/ATCC cell lines was reported.; format: functional; settings: Homo sapiens, read-out: Log TGI (converted)
RXF 393 [26] = test: Log of molar concentration leading to 50% cell death against renal cancer RXF 393 cell line was reported; format: functional; settings: Homo sapiens, read-out: Log LC50 (the source's name) (converted)
NCI/ADR-RES = test: In vitro total growth inhibition against breast cancer NCI/ADR-RES cell lines was reported.; format: functional; settings: Homo sapiens, read-out: Log TGI (converted)
KM12 = test: Log of molar concentration leading to 50% cell death against colon cancer KM12 cell line was reported; format: functional; settings: Homo sapiens, read-out: Log LC50 (the source's name) (converted)
HCT-116 = test: Log of molar concentration leading to 50% cell death against colon cancer HCT116 cell line was reported; format: functional; settings: Homo sapiens, read-out: Log LC50 (the source's name) (converted)
HCT-15 = test: In vitro growth inhibition against colon cancer […] cell line was reported.; format: functional; settings: Homo sapiens
SF-539 [27] = test: In vitro growth inhibition against CNS cancer SF-539 cell line was reported.; format: functional; settings: Homo sapiens
HOP-62 [28] = test: Log of molar concentration leading to 50% cell death against non-small-cell lung cancer HOP-62 cell line was reported; format: functional; settings: Homo sapiens, read-out: Log LC50 (the source's name) (converted)

SMILES: Cc1ccc2cccc(NC(=O)c3cc4c(cc3Cl)Sc3nccn3S4(=O)=O)c2n1
- GI50 (OVCAR-3): 2.95 µM
- TGI (RPMI-8226 [1]): 3.8 µM
- TGI (NCI-H23): 56.2 µM
- GI50 (SF-268): 9.55 µM
- CC50 (M14 [2]): 57.5 µM
- GI50 (IGROV-1 [3]): 3.24 µM
- TGI (Homo sapiens): 25.7 µM
- TGI (SK-MEL-5): 23.4 µM
- GI50 (SK-MEL-2): 13.2 µM
- TGI (A549 [4]): 25.7 µM
- GI50 (TK-10 [5]): 8.51 µM
- TGI (K562 [6]): 38 µM
- TGI (U-251 [7]): 14.5 µM
- TGI (HT-29): 56.2 µM
- GI50 (HL-60 [8]): 0.01 µM
- TGI (SK-MEL-28 [9]): 26.9 µM
- GI50 (A549 [10]): 12.3 µM
- CC50 (OVCAR-4): 61.7 µM
- TGI (LOX IMVI): 18.2 µM
- Log GTI (Tumor Cell line): -4.01
- CC50 (IGROV-1 [11]): 23.4 µM
- GI50 (U-251 [12]): 3.47 µM
- TGI (SNB-19): 33.9 µM
- GI50 (UO-31): 1.02 µM
- CC50 (HL-60 [13]): 3.8 µM
- TGI (OVCAR-5): 37.2 µM
- GI50 (HOP-92): 14.5 µM
- TGI (RXF 393 [14]): 25.1 µM
- GI50 (M14 [15]): 7.24 µM
- GI50 (MCF7): 3.24 µM
- TGI (OVCAR-8): 14.5 µM
- GI50 (Malme-3M): 17 µM
- GI50 (SK-MEL-28 [16]): 9.55 µM
- TGI (TK-10 [17]): 20.9 µM
- CC50 (DU-145): 42.7 µM
- CC50 (NCI-H522): 66.1 µM
- GI50 (K562 [18]): 4.07 µM
- CC50 (SF-539 [19]): 25.7 µM
- TGI (786-0): 38 µM
- GI50 (UACC-62): 14.5 µM
- TGI (HOP-62 [20]): 16.2 µM
- TGI (T47D [21]): 6.31 µM
- GI50 (RPMI-8226 [22]): 1.7 µM
- GI50 (MDA-MB-231 [23]): 11.5 µM
- GI50 (T47D [24]): 2.4 µM
- GI50 (SN12C): 12.3 µM
- GI50 (EKVX): 17 µM
- GI50 (MOLT-4): 4.57 µM
- TGI (NCI-H322M): 24.5 µM
- CC50 (PC-3): 32.4 µM
- TGI (COLO 205): 30.9 µM
- CC50 (HCC 2998): 14.5 µM
- TGI (MDA-MB-231 [25]): 24 µM
- CC50 (RXF 393 [26]): 64.6 µM
- TGI (NCI/ADR-RES): 41.7 µM
- CC50 (KM12): 43.7 µM
- CC50 (HCT-116): 40.7 µM
- GI50 (HCT-15): 4.79 µM
- GI50 (SF-539 [27]): 1.82 µM
- CC50 (HOP-62 [28]): 39.8 µM
